Experimental data as given in patent publication US20050159390A1, “Treatment and prevention of HIV and other viral infections” (priority 1998, published 2005).
Like-named read-outs stand apart in the source and are kept apart here.

Key:
HIV-1III B = assay: HIV-1 P24 output in activated human PBMCs, test solution mixed with virus overnight, day 9; format: cell-based; conditions: for inhibition at 5000 µg/mL (stock): Human immunodeficiency virus 1, PBMC, 216 h, read-out: Inhibition % of the control (P24 output)
Method: Research Grade Purified d-Galactose (CAT# g404, lot 117H00431, FW 180.2, Sigma Chemical Co., St. Louis, Mo.) was dissolved in saline at a concentration of 5 mg/ml. The solution was allowed to stand at room temperature for 15 minutes and mixed by vortex until the galactose was completely dissolved. The galactose solution was divided into two equal aliquots. Stabilizing solution (0.1 ml) was added to one aliquot, then vortexed and incubated at room temperature for 30 minutes. After mixing again, the mixture was centrifuged at 1500 g for 30 minutes and the supernatant was filtered through a 0.2 μm filter and transferred to a sterile 15 ml tube. The solution was sterilized by gamma radiation (2.5 mega RADs) with 15 minutes exposure. The aliquot without the stabilizing solution was labeled “1A” and the aliquot containing the stabilized solution was labeled “1B”. […] […] Control solutions were water.
One ml of each of the dilutions of the test solution or control was mixed with an equal volume of HIV-1III B (˜50 TCID50/2×10^5 cells) to infect activated human PBMCs overnight at 37° C. (3×10^5 cells/dilution). HIV-1III B is a laboratory-adapted strain. The cells then were washed and placed in culture media containing the indicated dilution of the test solution in triplicate wells ([…], ½ medium changes with media containing the indicated dilutions of test solution were made at ˜3 day intervals). The conditioned media were tested for HIV-1 P24 output on day 9 using the DuPont P24 assay kit. The control was infected PBMCs in the absence of test solutions. Results are shown in Table 9 and are measured as the Inhibition % of the control.

HIV-1 IIIB = assay: HIV-1 P24 output in activated human PBMCs, test solutions added post infection; format: cell-based; conditions: repeat with further dilutions; dilution 1:1000
Method: In addition, a similar experiment was performed, except that test solutions were added post infection, at the time of plating into the triplicate wells.

PBMCs = format: cell-based, human
Method: For the standard PBMC assay, PHA-P stimulated cells from at least two normal donors were pooled, diluted in fresh medium to a final concentration of 1×10^6 cells/mL, and plated in the interior wells of a 96 well round bottom microplate at 50 μL/well (5×10^4 cells/well). Test drug dilutions were prepared at a 2× concentration in microfuge tubes and 100 μL of each concentration was placed in appropriate wells in a standard format. A predetermined dilution of virus stock was placed in each test well (50 μL, final MOI≅0.1). Wells with cells and virus alone were used for virus control. Separate plates were prepared identically without virus for drug cytotoxicity studies using an XTT assay system. […]
(§1) Tetrazolium dye staining of screening plates: After 6 days of incubation (37° C. with 5% CO2), the test plates were analyzed by staining with the tetrazolium dye XTT (2,3-b (2-methoxy-4-nitro-5-sulfophenyl)-2H-tetrazolium-5-carboxanilide). XTT-tetrazolium is metabolized by mitochondrial enzymes of metabolically active cells to a soluble formazan product, allowing the rapid quantitative analysis of the inhibition of HIV-induced cell killing by anti-HIV compounds. […] Plates were sealed with adhesive plate sealers and inverted several times to mix the soluble formazan product and the plate was read spectrophotometrically at 450 nm with a Molecular Devices Vmax plate reader. […]

HIV-1IIIB = assay: CEM-SS cell-based assay, inhibition of HIV-induced cell killing (XTT); conditions: CEM-SS cells
HIV-1RF = assay: as above; conditions: CEM-SS cells
Method: (§2) Cell Preparation: Prior to infection, CEM-SS cells were grown in complete tissue culture medium (RPMI 1640 medium with 10% heat-inactivated fetal bovine serum, 2 mM L-glutamine, 100 U/mL penicillin, 100 μg/mL streptomycin, 10 μg/mL gentamycin) and transferred to T-150 flasks. On the day preceding the assay, the cells were split 1:2 to assure the cells would be in an exponential growth phase at time of infection. On the day of assay, the cells were washed twice with tissue culture medium and resuspended in fresh tissue culture medium. […]
Virus Preparation: Pre-tittered aliquots of HIV-1ROJO and HIV-1RF were removed from the freezer (−80° C.) and thawed to room temperature in a biological safety cabinet. The virus was resuspended and diluted into tissue culture medium such that the amount of virus added to each well in a volume of 50 μL will be the amount determined to give complete cell killing at 6 days post-infection.
Tetrazolium dye staining of screening plates: After 6 days of incubation (37° C. with 5% CO2), the test plates were analyzed by staining with the tetrazolium dye XTT (2,3-b (2-methoxy-4-nitro-5-sulfophenyl)-2H-tetrazolium-5-carboxanilide). XTT-tetrazolium is metabolized by mitochondrial enzymes of metabolically active cells to a soluble formazan product, allowing the rapid quantitative analysis of the inhibition of HIV-induced cell killing by anti-HIV compounds. […]

CEM-SS cells = format: cell-based
Method: as §2
as §1, with “reader. Indices such as % CPE Reduction (cytopathic effects), % Cell Viability, IC25, IC50, IC95, TC25, TC50, and TC95 and other indices were calculated.” for “reader.”

X4 strain LAI/IIIB = assay: RT activity in infected PBMCs treated with carbohydrates; format: cell-based, HIV; conditions: summary of Table 17
Method: Reverse Transcriptase Activity Assay: A microtiter based reverse transcriptase (RT) reaction was utilized as described by Buckheit et al., (1991), AIDS Research and Human Retroviruses, 7: 295-302. Tritiated thymidine triphosphate (3H-TTP) was suspended in distilled H2O at 5 Ci/mL. Poly rA and oligo dT were prepared as a stock solution which was kept at −20° C. RT reaction buffer was prepared fresh on a daily basis and contained 125 μL 1M EGTA, 125 μL dH2O, 110 μL 10% SDS, 50 μL 1M Tris (pH 7.4), 50 μL 1M DTT, and 40 μL 1M MgCl2. These three solutions were mixed together in a ratio of 2 parts 3H-TTP, 1 part poly rA:oligo dT, and 1 part reaction buffer. Ten microliters of this reaction mixture were placed in a round bottom microtiter plate and 15 μL of virus containing supernatant were added and mixed. The plate was incubated at 37° C. in a water bath with a solid support to prevent submersion of the plate and incubated for 60 minutes. […] Opti-Fluor-O (Packard) was added to each sample and incorporated radioactivity was quantified utilizing a Wallac 1450 MicroBeta Plus liquid scintillation counter. […]
No carbohydrates were added to the control sample. RT activity was determined at 3, 6, 9, 13, 17, and 20 days post-infection (PI) with X4 strain LAI/IIIB.

[1] = dilution 1:20 of 5 mg/ml solution
[2] = dilution 1:40 of 5 mg/ml solution
[3] = dilution 1:80 of 5 mg/ml solution
[4] = dilution 1:160 of 5 mg/ml solution
[5] = dilution 1:10 of 5 mg/ml solution

**Q.** `OC[C@H]1O[C@H](O[C@H]2[C@@H](O)[C@@H](CO)OC(O)[C@@H]2O)[C@H](O)[C@@H](O)[C@H]1O` (single isomer, unassigned) [3A, galactose-α 1,3-galactose] was tested. Which “Inhibition % of the control (P24 output)” value (HIV-1III B; [1]) did it give?
**A.** Its value is 3.6%.

**Q.** And the “Inhibition % of the control (P24 output)” value (HIV-1III B; [2])?
**A.** Its value is 2.2%.

**Q.** And the “Inhibition % of the control (P24 output)” value (HIV-1III B; [3])?
**A.** Its value is 1.4%.

**Q.** What about the “Inhibition % of the control (P24 output)” value (HIV-1III B; [4]) of the same compound?
**A.** Its value is 0.4%.

**Q.** For `O=C(CO)N[C@H]1[C@H]([C@H](O)[C@H](O)CO)OC(O)(C(=O)O)C[C@@H]1O` (single isomer, unassigned) [2A, N-glycolylneuraminic acid], which inhibition at 5000 µg/mL (stock) (HIV-1III B; [1]) is on record?
**A.** Its inhibition at 5000 µg/mL (stock) is 78%.

**Q.** And the inhibition at 5000 µg/mL (stock) (HIV-1III B; [2])?
**A.** The inhibition at 5000 µg/mL (stock) was 66%.

**Q.** What about the inhibition at 5000 µg/mL (stock) (HIV-1III B; [3]) of the same compound?
**A.** The inhibition at 5000 µg/mL (stock) was 41%.

**Q.** What about the inhibition at 5000 µg/mL (stock) (HIV-1III B; [4]) of the same compound?
**A.** Its inhibition at 5000 µg/mL (stock) is 19%.

**Q.** What about the “Inhibition % of Control (P24 output)” value (HIV-1 IIIB) of the same compound?
**A.** Its value is 7%.

**Q.** How did the “Inhibition % of the control (P24 output)” value (HIV-1III B; [2]) turn out when `O=C(CO)N[C@H]1[C@H]([C@H](O)[C@H](O)CO)OC(O)(C(=O)O)C[C@@H]1O` (single isomer, unassigned) [2B, N-glycolylneuraminic acid] was run?
**A.** The value was 61%.

**Q.** What about the “Inhibition % of Control (P24 output)” value (HIV-1 IIIB) of the same compound?
**A.** Its value is 1%.

**Q.** What does the source list for `Cc1cn([C@H]2C[C@H](N=[N+]=[N-])[C@@H](CO)O2)c(=O)[nH]c1=O` [AZT, reference compound]?
**A.** CC50 (PBMCs): > 4 µM; IC50 (HIV-1IIIB): 0.011 to 0.017 µM; IC50 (HIV-1RF): 0.005 to 0.007 µM; CC50 (CEM-SS cells): > 1 µM

**Q.** With `OC[C@H]1O[C@H](O[C@H]2[C@@H](O)[C@@H](CO)OC(O)[C@@H]2O)[C@H](O)[C@@H](O)[C@H]1O` (single isomer, unassigned) [3B, galactose-α 1,3-galactose] as the compound, how does the “Inhibition % of the control (P24 output)” value (HIV-1III B; [5]) read?
**A.** Its value is 4.6%.

**Q.** And the “Inhibition % of the control (P24 output)” value (HIV-1III B; [1])?
**A.** Its value is 3.6%.

**Q.** What about the “Inhibition % of the control (P24 output)” value (HIV-1III B; [2]) of the same compound?
**A.** The value was 1.8%.

**Q.** What about the “Inhibition % of the control (P24 output)” value (HIV-1III B; [3]) of the same compound?
**A.** Its value is 1.1%.

**Q.** And the “Inhibition % of the control (P24 output)” value (HIV-1III B; [4])?
**A.** The value was 0.5%.

**Q.** For `O=C[C@H](O)[C@@H](O)[C@@H](O)[C@H](O)CO` [1B, d-Galactose], which “Inhibition % of the control (P24 output)” value (HIV-1III B; [5]) is on record?
**A.** Its value is 7%.

**Q.** What about the “Inhibition % of the control (P24 output)” value (HIV-1III B; [1]) of the same compound?
**A.** Its value is 5%.

**Q.** And the “Inhibition % of the control (P24 output)” value (HIV-1III B; [2])?
**A.** Its value is 3%.

**Q.** And the “Inhibition % of the control (P24 output)” value (HIV-1III B; [3])?
**A.** The value was 4%.

**Q.** What about the “Inhibition % of the control (P24 output)” value (HIV-1III B; [4]) of the same compound?
**A.** The value was 2%.

**Q.** With `CC(=O)N[C@H]1[C@H]([C@H](O)[C@H](O)CO)OC(O)(C(=O)O)C[C@@H]1O` (stereo partly shown) [N-acetylneuraminic acid, reference compound] as the compound, how does the “RT activity in treated cells (in words)” value (X4 strain LAI/IIIB) read?
**A.** The value was “decreased RT activity was observed only with high concentrations”.

**Q.** For `O=C[C@H](O)[C@@H](O)[C@@H](O)[C@H](O)CO` [1A, d-Galactose], which inhibition at 5000 µg/mL (stock) (HIV-1III B; [5]) is on record?
**A.** Its inhibition at 5000 µg/mL (stock) is 4%.

**Q.** What about the inhibition at 5000 µg/mL (stock) (HIV-1III B; [1]) of the same compound?
**A.** Its inhibition at 5000 µg/mL (stock) is 5%.

**Q.** What about the inhibition at 5000 µg/mL (stock) (HIV-1III B; [2]) of the same compound?
**A.** Its inhibition at 5000 µg/mL (stock) is 4%.

**Q.** What about the inhibition at 5000 µg/mL (stock) (HIV-1III B; [3]) of the same compound?
**A.** The inhibition at 5000 µg/mL (stock) was 2%.

**Q.** What about the inhibition at 5000 µg/mL (stock) (HIV-1III B; [4]) of the same compound?
**A.** Its inhibition at 5000 µg/mL (stock) is 2%.
